# Assay results taken from article PMC10037499, “High-Throughput Screen Reveals the Structure–Activity Relationship of the Antimicrobial Lasso Peptide Ubonodin” (ACS Central Science, 2023).
# Where a SMILES comes first, the peptide text is derived from it.
# Experiments:
# [1] = system: RNA polymerase (RNAP) in E. coli MC1061; assay: High-throughput growth-based screen with NGS (enrichment value) for RNA polymerase inhibition; format: cell-based; details: log2 of frequency post-IPTG / frequency in cloning transformation library, single mutant library
# Procedure, shortened: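 E. coli MC1061 carrying ubonodin single/double variant plasmid libraries was grown and induced with 10 µM or 100 µM IPTG; surviving colonies were sequenced by NGS. Enrichment value = log2 of variant frequency post-IPTG over frequency in the cloning transformation library; depletion indicates RNAP inhibition.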
# B. cenocepacia AU0756 = system: B. cenocepacia AU0756; parameters: method as in PMID 35802499; details: spot-on-lawn assay; cited from earlier work
# From the text: We proceeded to test the antimicrobial activity of the selected variants against two clinical isolates of the Bcc, B. cenocepacia AU0756 and B. cenocepacia AU24362, in broth microdilution assays. […] We revisited these measurements using broth microdilution assays following the Clinical & Laboratory Standards Institute (CLSI) standard.
structure (smiles),measurement,setting,value
"CC[C@H](C)[C@@H]1NC(=O)[C@H](CO)NC(=O)CNC(=O)[C@H](CC(=O)O)NC(=O)CNC(=O)CNC(=O)CC[C@@H](C(=O)N[C@@H](Cc2ccc(O)cc2)C(=O)N[C@@H](Cc2ccccc2)C(=O)N[C@@H](CC(N)=O)C(=O)N[C@@H](CCCNC(=N)N)C(=O)N2CCC[C@H]2C(=O)N[C@@H](CCSC)C(=O)N[C@@H](Cc2c[nH]cn2)C(=O)N[C@H](C(=O)N[C@@H](Cc2c[nH]cn2)C(=O)N[C@@H](CC(=O)O)C(=O)N[C@@H](Cc2c[nH]c3ccccc23)C(=O)N[C@@H](CCC(N)=O)C(=O)N[C@H](C(=O)N[C@@H](CCSC)C(=O)N[C@@H](CC(=O)O)C(=O)N[C@@H](CO)C(=O)NCC(=O)N[C@@H](Cc2ccc(O)cc2)C(=O)N[C@@H](Cc2ccc(O)cc2)C(=O)NCC(=O)O)[C@@H](C)CC)[C@@H](C)CC)NC(=O)[C@H](C)NC1=O [WT, ubonodin] (HELM PEPTIDE1{G.G.D.G.S.I.A.E.Y.F.N.R.P.M.H.I.H.D.W.Q.I.M.D.S.G.Y.Y.G}$PEPTIDE1,PEPTIDE1,1:R1-8:R3$$$V2.0; C-terminus assumed)",Enrichment value,[1]; induction with 10 μM IPTG,−4.2
same,Enrichment value,[1]; induction with 100 μM IPTG,−4.3
same,MIC against strain AU0756,B. cenocepacia AU0756,10 µM
